This passage reports IC50 results from ChEMBL document CHEMBL2331105, “Selective Cyp11B1 Inhibitors for the Treatment of Cortisol Dependent Diseases” (ACS Med Chem Lett, 2013).

The structures appear in SMILES notation.

Experiment [1] has as its target T1, Cytochrome P450 11B2, mitochondrial (Homo sapiens, UniProt P19099).
T1 sequence (P19099 whole entry): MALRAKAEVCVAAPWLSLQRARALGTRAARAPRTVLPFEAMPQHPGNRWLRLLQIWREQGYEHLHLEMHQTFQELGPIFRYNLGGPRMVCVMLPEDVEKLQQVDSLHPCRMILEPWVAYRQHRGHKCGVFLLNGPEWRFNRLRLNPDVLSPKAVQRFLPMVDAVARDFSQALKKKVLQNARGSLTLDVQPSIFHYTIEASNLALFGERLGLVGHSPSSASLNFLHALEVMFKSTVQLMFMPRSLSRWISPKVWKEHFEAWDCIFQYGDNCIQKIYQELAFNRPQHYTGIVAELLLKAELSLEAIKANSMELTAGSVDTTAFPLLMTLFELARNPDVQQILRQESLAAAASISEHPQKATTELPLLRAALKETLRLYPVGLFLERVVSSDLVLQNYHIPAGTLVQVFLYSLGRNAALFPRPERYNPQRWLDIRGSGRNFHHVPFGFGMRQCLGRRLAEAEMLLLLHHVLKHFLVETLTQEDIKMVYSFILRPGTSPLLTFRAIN
The experiment is described as follows: Inhibition of human CYP11B2 expressed in hamster V79MZ cells using [1,2-3H]11-deoxycorticosterone as substrate preincubated for 60 mins prior to substrate addition measured after 50 mins by HPLC analysis. It counts as cell-based.

In experiment [2] the target is T2, Cytochrome P450 11B1, mitochondrial (Homo sapiens, UniProt P15538).
T2 sequence (P15538 whole entry): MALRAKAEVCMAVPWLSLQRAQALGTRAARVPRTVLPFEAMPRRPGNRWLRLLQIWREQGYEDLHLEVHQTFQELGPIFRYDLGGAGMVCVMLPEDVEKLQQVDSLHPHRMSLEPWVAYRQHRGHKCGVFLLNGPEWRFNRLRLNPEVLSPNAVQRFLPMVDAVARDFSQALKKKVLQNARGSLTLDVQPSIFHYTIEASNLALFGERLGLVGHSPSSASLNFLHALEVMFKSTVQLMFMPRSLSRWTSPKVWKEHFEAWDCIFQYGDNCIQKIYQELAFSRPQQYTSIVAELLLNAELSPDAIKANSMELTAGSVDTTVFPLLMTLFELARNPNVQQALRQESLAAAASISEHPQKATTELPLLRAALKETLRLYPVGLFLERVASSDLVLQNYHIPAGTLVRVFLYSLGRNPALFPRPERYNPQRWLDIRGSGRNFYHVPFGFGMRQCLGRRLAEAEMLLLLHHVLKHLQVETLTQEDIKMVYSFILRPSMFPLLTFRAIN
The experiment can be described thus: Inhibition of human CYP11B1 expressed in hamster V79MZ cells using [1,2-3H]11-deoxycorticosterone as substrate preincubated for 60 mins prior to substrate addition measured after 25 mins by HPLC analysis. It counts as cell-based.

As to `Fc1ccc(Cn2ccnc2)cn1`, the results for the IC50 in experiment [1] and in experiment [2] were 1740 nM and 72 nM, respectively.
